Reference: PubChem BioAssay (NCI)
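Method: 48-hour compound exposure of cells in 96-well plates, five concentrations, linear interpolation of endpoints. GI50 = concentration required for 50% inhibition of growth. Definition used: TGI = concentration required for complete inhibition of growth.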

What was measured:
Experiment in all cases: DTP human tumour cell line panel, 48 h
M19-MEL melanoma = system: M19-MEL melanoma
LXFL 529 NSCLC = system: LXFL 529 NSCLC
DMS 273 small cell lung = system: DMS 273 small cell lung
RXF-631 renal = system: RXF-631 renal
XF 498 CNS = system: XF 498 CNS
PC-3 prostate = system: PC-3 prostate
DU-145 prostate = system: DU-145 prostate
MCF7 breast = system: MCF7 breast
MDA-N = system: MDA-N

SMILES | TGI (M19-MEL melanoma) | TGI (LXFL 529 NSCLC) | TGI (DMS 273 small cell lung) | TGI (XF 498 CNS) | GI50 (PC-3 prostate) | TGI (PC-3 prostate) | GI50 (DU-145 prostate) | TGI (DU-145 prostate) | GI50 (MCF7 breast) | TGI (MCF7 breast) | other results
N#CC(/C(=N\NC(N)=S)C(=O)NC1C2CC3CC(C2)CC1C3)c1ccc(Cl)cc1 (configuration not stated) | > 100 µM | > 100 µM | > 100 µM | > 100 µM |  |  |  |  |  |  | TGI (RXF-631 renal): > 100 µM
CC(C)c1cc2c(O)c(c1)Cc1cc(C(C)C)cc(c1O)Cc1cc(C(C)C)cc(c1O)Cc1cc(C(C)C)cc(c1O)Cc1cc(C(C)C)cc(c1O)Cc1cc(C(C)C)cc(c1O)C2 | > 100 µM | > 100 µM | > 100 µM | > 100 µM |  |  |  |  |  |  | 
CC(C)S(=O)(=O)n1c(N)nc2ccc(/C(=N/O)c3ccccc3)cc21 | > 100 µM | > 100 µM | > 100 µM |  |  |  |  |  |  |  | 
C/C(=N\N=C(N)N)c1sc(-c2nc(C)c(/C(C)=N/N=C(N)N)s2)nc1C | > 100 µM | > 100 µM | > 100 µM | > 100 µM |  |  |  |  |  |  | 
COCCOCCOCCOCCOc1ccc2c(c1)C(=O)c1nc3ncccc3c(=O)n1-2 |  |  |  |  | 1.67 µM | 16.5 µM | 0.54 µM | 1.79 µM | 0.799 µM | 2.2 µM | 
C(=C1/CCCCC([n+]2ccccc2)=N1)/c1ccccc1 | > 100 µM | > 100 µM | > 100 µM |  |  |  |  |  |  |  | 
CCCCCCCCSC(SCCCCCCCC)=C1C(=O)N(c2ccccc2)N=C1C | > 100 µM | > 100 µM | > 100 µM |  |  |  |  |  |  |  | TGI (RXF-631 renal): > 100 µM
C1CCN2CC34CC(CC5CCCN(C6CCCC3N6)C54)C2C1 (configuration not stated) |  |  |  |  |  | > 100 µM |  | > 100 µM |  | > 100 µM | TGI (MDA-N): > 100 µM
O=C(/C=C/c1cccs1)Nc1ncc(Cc2ccccc2F)s1 |  |  |  |  | 0.261 µM | > 100 µM | 0.3 µM | > 100 µM | 0.318 µM | > 100 µM | 
CN1C=CN(Cc2ccc(-c3ccccn3)nc2)[CH-]1.CN1C=CN(Cc2ccc(-c3ccccn3)nc2)[CH-]1.[Au+3] |  |  |  |  | 0.922 µM | > 100 µM | 4.16 µM | 36.8 µM | 0.314 µM | 12.2 µM | 
O=C(Nc1ccc(-c2nc3ccc(NC(=O)c4ccc(Cl)cc4)cc3[nH]2)cc1)c1ccc(Cl)cc1 |  |  |  |  | 2.11 µM | 5.93 µM | 2.43 µM | 7.16 µM | 1.23 µM | 4.91 µM | 
O=C1CCCC2COc3ccc(O)c1c32 (configuration not stated) | > 100 µM |  | > 100 µM |  |  |  |  |  |  |  | TGI (RXF-631 renal): > 100 µM
S=C1OC2C3C4CC5C3C(O1)C1C5C4C21 (configuration not stated) | > 100 µM | > 100 µM | > 100 µM |  |  |  |  |  |  |  | 
COC(=N)/C(=C1\OC(N)=C(c2ccc(Cl)cc2)C1=O)c1ccc(Cl)cc1 | > 100 µM | > 100 µM | > 100 µM | > 100 µM |  |  |  |  |  |  | 
CCCC/C(C)=N/NC(N)=S | > 100 µM | > 100 µM |  |  |  |  |  |  |  |  | 
Cc1cc(C(=O)NCCN(C)C)c2nc3ccccc3nc2c1 | 13.6 µM | > 46.3 µM | > 100 µM |  |  |  |  |  |  |  | 
O=C(O)C(O)C(O)C1[O][Sb][O]C1CO (configuration not stated) | 31 µM | > 100 µM | > 100 µM | > 100 µM | > 100 µM | > 100 µM | > 100 µM | > 100 µM |  |  | GI50 (M19-MEL melanoma): 9.07 µM; GI50 (LXFL 529 NSCLC): > 89.2 µM; GI50 (MDA-N): > 100 µM; TGI (MDA-N): > 100 µM; GI50 (DMS 273 small cell lung): > 100 µM; GI50 (XF 498 CNS): > 100 µM
OCC(O)C(OC1OC(CO)C(O)C(O)C1O)c1nn(-c2ccc(F)cc2)c2nc3cc(Cl)c(Cl)cc3cc12 (configuration not stated) | > 100 µM | > 100 µM |  | > 100 µM |  |  |  |  |  |  | 
Cc1ccc(C)c2sc3cc(=O)ccc-3nc12 | 31.1 µM | > 100 µM | > 100 µM |  |  |  |  |  |  |  | TGI (RXF-631 renal): > 100 µM
COc1cc(Nc2ncc(-c3ccccc3)o2)cc(OC)c1OC |  |  |  |  | 7.3 µM | > 25 µM | 5.98 µM | > 25 µM | 0.0695 µM | > 25 µM | 
NC(=O)c1ccc(-c2c3ccccc3cc3c2ccc2ccccc23)cc1 |  |  |  |  | 4.88 µM | 24.5 µM | 4.4 µM | 26.2 µM | 1.88 µM | 11.6 µM | 
Cc1ccc(NC(=O)CCC(=O)C(C#N)c2ccc(Cl)cc2)cc1C (configuration not stated) | > 100 µM | > 100 µM | > 100 µM | > 100 µM |  |  |  |  |  |  | 
COc1ccc(/C=C/CO)cc1OC | > 100 µM | > 100 µM | > 100 µM |  |  |  |  |  |  |  | 
CC1=C[C@H]2C[C@@]3(C)O[C@@H]([C@]4(C)CC[C@H]([C@@H](C)C(=O)O)OO4)CC3C(C)(C)[C@H]2CC1 (some centres not stated) | 3.3 µM | 1.9 µM | 1.74 µM | 0.234 µM |  |  |  |  |  |  | 
O=C(N/N=C\c1cc(Cl)ccc1O)N/N=C/c1cc(Cl)ccc1O |  |  |  |  | 2.96 µM | > 100 µM | > 100 µM | > 100 µM | 3.12 µM | > 100 µM | 
CCn1c(-c2cc3ccccc3cc2OC(=O)c2ccccc2)n[nH]c1=S |  |  |  |  | 19.6 µM | > 50 µM | > 50 µM | > 50 µM | > 50 µM | > 50 µM | 
